{
  "source": "paper PMC1774582",
  "about": "“Choroid plexus epithelial monolayers – a cell culture model from porcine brain” (Cerebrospinal Fluid Research, 2006)",
  "key": {"[1]": {"tested_on": "choroid plexus epithelial cells", "protocol": "(§1) To assess CSF secretion by cultured CPEC, cells were cultured on permeable, polyester six-well Transwell® filter plates coated with 5 μg/ml laminin for 13 to 15 DIC. […] Following a 1 h preincubation with CSFB, 1.0 ml 1.0 μM 67 kDa fluorescent-dextran (FITC-dextran) in CSFB was added to both apical and basolateral chambers and secreted CSF volume (in μl/cm^2) was calculated as a function of FITC-dextran concentration change.\n(§2) The permeability coefficient P of test compounds was calculated according to equation (2):\n(§3) P=dc/dt×Vacceptor/A×c0 (2) MathType@MTEF@5@5@+=feaafiart1ev1aaatCvAUfKttLearuWrP9MDH5MBPbIqV92AaeXatLxBI9gBaebbnrfifHhDYfgasaacH8akY=wiFfYdH8Gipec8Eeeu0xXdbba9frFj0=OqFfea0dXdd9vqai=hGuQ8kuc9pgc9s8qqaq=dirpe0xb9q8qiLsFr0=vr0=vr0dc8meaabaqaciaacaGaaeqabaqabeGadaaakeaacqWGqbaucqGH9aqpdaWcaaqaaiabdsgaKjabdogaJbqaaiabdsgaKjabdsha0baacqGHxdaTdaWcaaqaaiabdAfawnaaBaaaleaacqWGHbqycqWGJbWycqWGJbWycqWGLbqzcqWGWbaCcqWG0baDcqWGVbWBcqWGYbGCaeqaaaGcbaGaemyqaeKaey41aqRaem4yam2aaSbaaSqaaiabicdaWaqabaaaaOGaaCzcaiaaxMaadaqadaqaaiabikdaYaGaayjkaiaawMcaaaaa@4C1D@\n(§4) with dc/dt representing the change of the acceptor concentration over time, Vacceptor the acceptor volume, A the membrane surface area and c0 the initial donor concentration. Concentrations were assessed by analysis in a fluorescent plate reader (Ascent Fluoroscan) for fluorescent-labelled compounds."}, "Mrp1 [2]": {"tested_on": "Mrp1", "set-up": "method as in PMID 10675353", "conditions": "animals lacking Mrp1 ref 49; cited from earlier work"}, "Mrp1 [3]": {"target": "Mrp1 (Sus scrofa, UniProt K9IVJ9)", "sequence (K9IVJ9 1-1532)": "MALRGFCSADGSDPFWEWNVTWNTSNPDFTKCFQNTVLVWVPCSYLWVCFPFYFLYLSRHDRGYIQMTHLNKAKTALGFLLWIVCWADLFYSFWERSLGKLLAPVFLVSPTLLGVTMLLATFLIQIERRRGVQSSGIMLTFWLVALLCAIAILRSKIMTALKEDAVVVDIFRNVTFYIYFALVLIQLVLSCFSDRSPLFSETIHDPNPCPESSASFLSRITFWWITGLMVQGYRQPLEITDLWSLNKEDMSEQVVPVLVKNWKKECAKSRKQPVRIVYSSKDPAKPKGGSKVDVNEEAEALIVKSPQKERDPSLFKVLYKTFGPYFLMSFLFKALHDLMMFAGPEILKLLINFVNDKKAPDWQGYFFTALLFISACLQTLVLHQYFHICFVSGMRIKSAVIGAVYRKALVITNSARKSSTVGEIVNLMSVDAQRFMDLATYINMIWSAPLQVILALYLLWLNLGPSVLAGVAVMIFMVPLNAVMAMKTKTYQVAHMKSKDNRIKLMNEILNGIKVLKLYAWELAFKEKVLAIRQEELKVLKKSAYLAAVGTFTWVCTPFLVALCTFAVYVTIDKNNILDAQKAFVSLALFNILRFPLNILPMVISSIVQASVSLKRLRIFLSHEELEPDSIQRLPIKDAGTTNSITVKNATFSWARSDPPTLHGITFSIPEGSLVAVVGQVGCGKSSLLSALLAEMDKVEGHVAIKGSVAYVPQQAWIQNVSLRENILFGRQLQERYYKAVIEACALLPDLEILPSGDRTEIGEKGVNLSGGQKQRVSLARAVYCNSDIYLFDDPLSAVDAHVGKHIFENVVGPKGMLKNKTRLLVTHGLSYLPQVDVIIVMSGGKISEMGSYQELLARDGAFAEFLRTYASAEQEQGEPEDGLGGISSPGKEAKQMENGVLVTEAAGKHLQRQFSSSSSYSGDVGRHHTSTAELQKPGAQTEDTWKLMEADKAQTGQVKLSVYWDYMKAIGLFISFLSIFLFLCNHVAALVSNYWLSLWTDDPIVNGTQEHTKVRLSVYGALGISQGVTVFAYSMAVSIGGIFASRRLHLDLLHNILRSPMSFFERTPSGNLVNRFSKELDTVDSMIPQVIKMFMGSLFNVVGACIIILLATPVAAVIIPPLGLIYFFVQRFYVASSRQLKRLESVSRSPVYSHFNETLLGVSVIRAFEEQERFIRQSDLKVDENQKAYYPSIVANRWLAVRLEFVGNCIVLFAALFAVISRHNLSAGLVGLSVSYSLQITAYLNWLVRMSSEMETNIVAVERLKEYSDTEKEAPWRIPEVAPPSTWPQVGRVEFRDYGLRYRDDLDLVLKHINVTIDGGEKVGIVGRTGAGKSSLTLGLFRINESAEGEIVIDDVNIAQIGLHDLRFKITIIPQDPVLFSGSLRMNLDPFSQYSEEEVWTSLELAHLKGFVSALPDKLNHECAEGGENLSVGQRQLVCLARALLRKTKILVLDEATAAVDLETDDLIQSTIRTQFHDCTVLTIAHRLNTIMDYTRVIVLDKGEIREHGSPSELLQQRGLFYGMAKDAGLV", "conditions": "2 μM FL-MTX, CPEC; direction taken from paragraph and Figure 10B"}, "[4]": {"tested_on": "choroid plexus epithelial cells", "assay": "Permeability across choroid plexus epithelial cell (CPEC) monolayers on Transwell filters", "conditions": "apical versus basolateral direction", "protocol": "as §1, §2, §3, §4"}, "[5]": {"tested_on": "intact choroid plexus tissue", "conditions": "intact choroid plexus tissue from guinea pig ref 47; cited from earlier work"}},
  "data": [
    {"smiles": "O=C(O)c1ccc2c(c1)C(=O)OC21c2ccc(O)cc2Oc2cc(O)ccc21", "note": "[5-carboxyfluorescein]", "values": [
      {"measurement": "Papp (apparent permeability coefficient)", "setting": "[1]", "result": 45, "unit": "×10⁻⁶ cm/s"},
      {"measurement": "Papp with opened tight junctions versus intact monolayer", "setting": "[1]", "result": "nearly doubling"}
    ]},
    {"smiles": "COc1cc([C@@H]2c3cc4c(cc3[C@@H](O[C@@H]3O[C@@H]5CO[C@@H](C)O[C@H]5[C@H](O)[C@H]3O)[C@H]3COC(=O)[C@H]23)OCO4)cc(OC)c1O", "note": "[etoposide]", "values": [
      {"measurement": "accumulation in CSF", "setting": "Mrp1 [2]", "result": "increased accumulation"}
    ]},
    {"smiles": "Nc1ccc(C(=O)NCC(=O)O)cc1", "note": "[p-aminohippuric acid]", "values": [
      {"measurement": "effect on FL-MTX transport from the basolateral to the apical side", "setting": "Mrp1 [3]", "result": "did not significantly affect"}
    ]},
    {"smiles": "CCCN(CCC)S(=O)(=O)c1ccc(C(=O)O)cc1", "note": "[probenecid]", "values": [
      {"measurement": "effect on FL-MTX transport from the basolateral to the apical side", "setting": "Mrp1 [3]", "result": "did not significantly affect"}
    ]},
    {"smiles": "COC(=O)c1ccccc1-c1c2ccc(=N)cc-2oc2cc(N)ccc12", "note": "[rhodamine 123]", "values": [
      {"measurement": "preferred / directed transport across CP epithelial cells", "setting": "[4]", "result": "no directed transport"}
    ]},
    {"smiles": "CC[C@]1(O)C[C@@H]2CN(CCc3c([nH]c4ccccc34)[C@@](C(=O)OC)(c3cc4c(cc3OC)N(C)[C@H]3[C@@](O)(C(=O)OC)[C@H](OC(C)=O)[C@]5(CC)C=CCN6CC[C@]43[C@@H]65)C2)C1", "note": "[vinblastine]", "values": [
      {"measurement": "influence on uptake of the Pgp substrate ritonavir", "setting": "[5]", "result": "not influenced"}
    ]}
  ]
}
